This test deals with POLRMT (Homo sapiens (Human), UniProt O00411). The test can be described thus: homogeneous TR-FRET assay of mitochondrial transcription (inhibition of POLRMT). The class given is biochemical. The settings on record: 7.5 nM POLRMT, 15 nM TFB2M, 30 nM TFAM, 0.5 nM DNA template, 500 μM NTPs, 37° C., 60 minutes. In a few lines:
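Human POLRMT (7.5 nM) with TFB2M (15 nM), TFAM (30 nM), 0.5 nM linearized LSP plasmid template and 500 μM NTPs in pH 7.5 Tris/MgCl2 buffer, 60 min at 37 °C. Stopped with EDTA/high-salt; 407 bp transcript detected by hybridized Europium/ATTO647N probes. 665/620 nm ratio gives activity.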
In general terms: Time-resolved FRET reads energy transfer from a long-lived donor to a nearby acceptor.
POLRMT, sequence (O00411 42-1230): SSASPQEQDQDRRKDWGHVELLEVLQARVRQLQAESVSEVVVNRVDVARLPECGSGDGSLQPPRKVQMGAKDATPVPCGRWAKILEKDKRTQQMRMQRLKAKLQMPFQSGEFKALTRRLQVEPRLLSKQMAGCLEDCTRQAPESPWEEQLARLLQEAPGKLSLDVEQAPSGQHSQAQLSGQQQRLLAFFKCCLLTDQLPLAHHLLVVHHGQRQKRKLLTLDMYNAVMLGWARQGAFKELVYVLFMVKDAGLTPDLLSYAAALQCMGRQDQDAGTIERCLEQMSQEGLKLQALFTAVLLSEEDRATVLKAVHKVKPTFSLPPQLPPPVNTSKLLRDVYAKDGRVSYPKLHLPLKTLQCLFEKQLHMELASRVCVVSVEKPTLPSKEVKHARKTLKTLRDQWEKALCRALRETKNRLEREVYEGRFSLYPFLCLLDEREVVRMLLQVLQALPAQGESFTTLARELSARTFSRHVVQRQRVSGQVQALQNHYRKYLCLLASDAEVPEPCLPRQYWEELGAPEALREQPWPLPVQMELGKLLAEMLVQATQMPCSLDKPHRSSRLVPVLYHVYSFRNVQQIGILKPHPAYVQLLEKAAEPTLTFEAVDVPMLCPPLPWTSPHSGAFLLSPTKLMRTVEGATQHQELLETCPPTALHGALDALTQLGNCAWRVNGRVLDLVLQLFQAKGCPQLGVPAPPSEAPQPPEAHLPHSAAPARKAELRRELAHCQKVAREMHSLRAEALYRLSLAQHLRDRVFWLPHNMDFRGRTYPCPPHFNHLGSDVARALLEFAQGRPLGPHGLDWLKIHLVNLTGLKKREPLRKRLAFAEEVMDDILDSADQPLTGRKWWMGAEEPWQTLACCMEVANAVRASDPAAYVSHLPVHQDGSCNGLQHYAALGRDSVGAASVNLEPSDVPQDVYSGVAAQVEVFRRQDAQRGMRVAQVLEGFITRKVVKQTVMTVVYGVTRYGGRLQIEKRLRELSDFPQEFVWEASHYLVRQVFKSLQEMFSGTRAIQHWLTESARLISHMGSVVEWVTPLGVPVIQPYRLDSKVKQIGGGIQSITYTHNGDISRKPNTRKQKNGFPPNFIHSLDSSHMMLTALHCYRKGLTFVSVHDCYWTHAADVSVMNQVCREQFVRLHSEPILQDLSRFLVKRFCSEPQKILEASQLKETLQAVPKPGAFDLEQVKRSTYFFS
Regarding `Cc1ccccc1-c1cc(=O)oc2cc(O[C@H]3CCN(C)C3)ccc12` [Example 63, (S)-7-((1-methylpyrrolidin-3-yl)oxy)-4-(o-tolyl)-2H-chromen-2-one], the concentration for half-maximal inhibition (IC50) worked out at 90000 nM. `CCCOc1ccc2c(-c3ncccc3C)cc(=O)oc2c1` [Example 64, 4-(3-methylpyridin-2-yl)-7-propoxy-2H-chromen-2-one] came in with a half-inhibitory concentration (IC50) of 54000 nM. Compared with the last compound, the IC50 is about 1.7-fold lower.

Turning to `COCC(Oc1ccc2c(-c3ccccc3C)cc(=O)oc2c1)C(=O)O` (stereo not drawn) [Example 65, 3-methoxy-2-((2-oxo-4-(o-tolyl)-2H-chromen-7-yl)oxy)propanoic acid], half-maximal inhibition (IC50) was put at 800 nM. `Cc1ccccc1-c1cc(=O)oc2cc(O[C@@H]3CCN(C)C3)ccc12` [Example 66, (R)-7-((1-methylpyrrolidin-3-yl)oxy)-4-(o-tolyl)-2H-chromen-2-one] gave a half-inhibitory concentration (IC50) of 42000 nM. This IC50 is about 52-fold higher than that of the compound before. Consider `COC[C@H](Oc1ccc2c(-c3ccccc3C)cc(=O)oc2c1)C(N)=O` [Example 67, (S)-3-methoxy-2-((2-oxo-4-(o-tolyl)-2H-chromen-7-yl)oxy)propenamide], for which the half-inhibitory concentration (IC50) came to 16000 nM. `COC[C@@H](Oc1ccc2c(-c3ccccc3C)cc(=O)oc2c1)C(N)=O` [Example 68, (R)-3-methoxy-2-((2-oxo-4-(o-tolyl)-2H-chromen-7-yl)oxy)propenamide] yielded a concentration for half-maximal inhibition (IC50) of 700 nM. The same measure for `CNC(=O)[C@H](COC)Oc1ccc2c(-c3ccccc3C)cc(=O)oc2c1` [Example 69, (S)-3-methoxy-N-methyl-2-((2-oxo-4-(o-tolyl)-2H-chromen-7-yl)oxy)propenamide]: 17000 nM; for `CNC(=O)[C@@H](COC)Oc1ccc2c(-c3ccccc3C)cc(=O)oc2c1` [Example 70, (R)-3-methoxy-N-methyl-2-((2-oxo-4-(o-tolyl)-2H-chromen-7-yl)oxy)propenamide]: 900 nM; for `COC[C@@H](Oc1ccc2c(-c3ccccc3C)cc(=O)oc2c1)C(=O)N(C)C` [Example 71, (R)-3-methoxy-N,N-dimethyl-2-((2-oxo-4-(o-tolyl)-2H-chromen-7-yl)oxy)propenamide]: 100 nM.

For the compound `COC[C@H](Oc1ccc2c(-c3ccccc3C)cc(=O)oc2c1)C(=O)N(C)C` [Example 72, (S)-3-methoxy-N,N-dimethyl-2-((2-oxo-4-(o-tolyl)-2H-chromen-7-yl)oxy)propenamide], half-maximal inhibition (IC50) required 10000 nM. Compared with the last compound, the IC50 is about 100-fold higher. For the compound `COCC(Oc1ccc2c(-c3ccc(F)cc3Cl)cc(=O)oc2c1)C(=O)O` (stereo not drawn) [Example 73, 2-((4-(2-chloro-4-fluorophenyl)-2-oxo-2H-chromen-7-yl)oxy)-3-methoxypropanoic acid], the IC50 amounted to 3000 nM. `COCC(Oc1ccc2c(-c3ccccc3Cl)cc(=O)oc2c1)C(=O)O` (stereo not drawn) [Example 84, 2-((4-(2-chlorophenyl)-2-oxo-2H-chromen-7-yl)oxy)-3-methoxypropanoic acid]: the IC50 stood at 2000 nM.

Compound `CCOCC(Oc1ccc2c(-c3ccccc3C)cc(=O)oc2c1)C(N)=O` (stereo not drawn) [Example 99] had an IC50 of 4000 nM. As to `CCOCC(Oc1ccc2c(-c3ccccc3C)cc(=O)oc2c1)C(N)=O` (stereo not drawn) [Example 100], the midpoint of inhibition, the IC50, lay at 900 nM. For the compound `COC[C@@H](Oc1ccc2c(-c3ccccc3C)cc(=O)oc2c1)C(=O)O` [Example 101, (R)-3-methoxy-2-((2-oxo-4-(o-tolyl)-2H-chromen-7-yl)oxy)propanoic acid], half-maximal inhibition (IC50) was put at 400 nM. `Cc1ccccc1-c1cc(=O)oc2cc(OC(CO)C(=O)O)ccc12` (stereo not drawn) [Example 102, 3-hydroxy-2-((2-oxo-4-(o-tolyl)-2H-chromen-7-yl)oxy)propanoic acid] showed an IC50 of 1000 nM.

Take `Cc1ccccc1-c1cc(=O)oc2cc(O[C@@H](CO)C(=O)O)ccc12` [Example 103, (S)-3-hydroxy-2-((2-oxo-4-(o-tolyl)-2H-chromen-7-yl)oxy)propanoic acid]: the IC50 was 16000 nM. The same measure for `COC[C@H](Oc1ccc2c(-c3ccccc3C)cc(=O)oc2c1)C(=O)O` [Example 104, (S)-3-methoxy-2-((2-oxo-4-(o-tolyl)-2H-chromen-7-yl)oxy)propanoic acid]: 2000 nM.

By IC50 is commonly meant the concentration at which inhibition is half-maximal.

Values taken from patent US20240368106A1, “HYDROXY AND ALKOXY COUMARINS AS MODULATORS OF POLRMT” (Pretzel Therapeutics, Inc., priority 2021, published 2024).
